Read-outs that look alike come from different tables or passages of the source.
Key:
[1] = Solubility test of anthracene derivatives in solvents; assay type: physicochemical; details: for solubility at 10 min: organic solvent or mixture, thermodynamic from solid, ultrasonic waves 10 minutes; for solubility in a solvent (summary in words): solubility test at 10 g/L, six solvents
Procedure: As comparative examples, compositions were produced by dissolving samples 1-1 to 1-4 in solvents. As manufacturing examples 1, compositions were produced by dissolving samples 1-5 to 1-14 in solvents. The solubility test was performed on the solvents of the anthracene derivatives of the samples […]. The following six solvents were used: diethyl ether, toluene, ethyl acetate, anisole, acetone, and 1,4-dioxane.
0.01 g of each of the anthracene derivatives of the samples 1-1 to 1-14 was measured and put in a sample bottle, 1 mL of a solvent was added in the sample bottle (the solution concentration was 10 g/L), and ultrasonic waves were applied thereto for 10 minutes.

[2] = Film quality test of spin-coated thin films; assay type: physicochemical; parameters: key to Film Quality Test, Solvent Toluene / Film Quality Test, Solvent Ethyl acetate / Film Quality Test, Solvent Anisole / Film Quality Test, Solvent dioxane: ◯: a circle is marked in the case of a transparent film where crystallization or white turbidity is not seen; X: a cross is marked in the case of a film where crystallization or white turbidity is seen; details: for Film Quality Test, Solvent Anisole: 10 g/L in anisole; for Film Quality Test, Solvent Anisole / Film Quality Test, Solvent dioxane / Film Quality Test, Solvent Ethyl acetate / Film Quality Test, Solvent Toluene: spin coated on glass substrate at 1000 rpm (60 seconds); for Film Quality Test, Solvent dioxane: 10 g/L in dioxane; for Film Quality Test, Solvent Ethyl acetate: 10 g/L in ethyl acetate; for Film Quality Test, Solvent Toluene: 10 g/L in toluene
Procedure: A composition of each of the samples was adjusted at a concentration of 10 g/L which is the same as that of the solubility test and was deposited over a glass substrate with a size of 5 inches at 1000 rpm (60 seconds) with a spin coater.

[3] = 0.01 g in 1 mL 1,4-dioxane (10 g/L), read-out: Solubility Test, Solvent dioxane
[4] = 0.01 g in 1 mL acetone (10 g/L), read-out: Solubility Test, Solvent acetone
[5] = 0.01 g in 1 mL anisole (10 g/L), read-out: Solubility Test, Solvent Anisole
[6] = 0.01 g in 1 mL diethyl ether (10 g/L), read-out: Solubility Test, Solvent Diethyl ether
[7] = 0.01 g in 1 mL ethyl acetate (10 g/L), read-out: Solubility Test, Solvent Ethyl acetate
[8] = 0.01 g in 1 mL toluene (10 g/L), read-out: Solubility Test, Solvent Toluene

Structure (SMILES) | solubility at 10 min [1, 3] [mg/mL] | solubility at 10 min [1, 4] [mg/mL] | solubility at 10 min [1, 5] [mg/mL] | solubility at 10 min [1, 6] [mg/mL] | solubility at 10 min [1, 7] [mg/mL] | solubility at 10 min [1, 8] [mg/mL] | solubility in a solvent (summary in words) [1] | Film Quality Test, Solvent Anisole [2] | Film Quality Test, Solvent dioxane [2] | Film Quality Test, Solvent Ethyl acetate [2] | Film Quality Test, Solvent Toluene [2] | film quality (summary in words) ([2]; film quality test, spin coated from 10 g/L composition)
c1ccc(-c2c3ccccc3c(-c3ccc(-n4c5ccccc5c5cc(-c6ccc7c(c6)c6ccccc6n7-c6ccccc6)ccc54)cc3)c3ccccc23)cc1 [Sample 1-3, 9-phenyl-9′-[4-(10-phenyl-9-anthryl)phenyl]-3,3′-bi(9H-carbazole), reference compound] | < 10 | < 10 | < 10 | < 10 | < 10 | < 10 | low solubility |  |  |  |  | 
c1ccc2c(-c3ccc(-n4c5ccccc5c5ccccc54)cc3)c3ccccc3c(-c3ccc(-n4c5ccccc5c5ccccc54)cc3)c2c1 [Sample 1-2, 9,10-bis(4-(N-carbazolyl)phenyl)anthracene, reference compound] | < 10 | < 10 | < 10 | < 10 | < 10 | < 10 | low solubility |  |  |  |  | 
CC(C)(C)c1ccc2c(-c3ccc(-c4ccc5c(c4)c4ccccc4n5-c4ccccc4)cc3)c3ccccc3c(-c3ccc(-c4ccc5c(c4)c4ccccc4n5-c4ccccc4)cc3)c2c1 [Sample 1-4, 3,3′-(2-tert-buthylanthracene-9,10′-diyldi-4,1-phenylene)bis(9-phenyl-9H-carbazole), reference compound] |  |  |  |  |  |  | low solubility |  |  |  |  | 
c1ccc(-c2ccc3c(c2)c2cc(-c4ccccc4)ccc2n3-c2ccc(-c3c4ccccc4c(-c4ccccc4)c4ccccc34)cc2)cc1 [Sample 1-10, 3,6-diphenyl-9-[4-(10-phenyl-9-antryl)phenyl]-9H-carbazole] |  |  |  |  |  |  |  | ◯ | X | X | ◯ | 
CC(C)(C)c1ccc(-c2c3ccccc3c(-c3ccc(-n4c5ccccc5c5ccccc54)cc3)c3ccccc23)cc1 [Sample 1-8, 9-(4-tert-butylphenyl)-10-[4-(carbazol-9-yl)]phenylanthracene] |  |  |  |  |  |  |  | ◯ | X | X | ◯ | 
c1ccc(-c2c3ccccc3c(-c3cccc(-n4c5ccccc5c5ccccc54)c3)c3ccccc23)cc1 [Sample 1-7, 9-[3-(10-phenyl-9-anthryl)phenyl]-9H-carbazole] | > 10 | < 10 | > 10 | < 10 | < 10 | > 10 |  | ◯ | ◯ | X | ◯ | 
c1ccc(-c2ccccc2-c2c3ccccc3c(-c3ccccc3-c3ccccc3)c3cc(-n4c5ccccc5c5ccccc54)ccc23)cc1 [Sample 1-14, 9-[9,10-bis(2-biphenyl)-2-anthryl]-9H-carbazole] |  |  |  |  |  |  |  | ◯ | X | ◯ | ◯ | 
c1ccc(-c2c3ccccc3c(-c3ccccc3)c3cc(-c4ccc(-n5c6ccccc6c6ccccc65)cc4)ccc23)cc1 [Sample 1-11, 9-[4-(9,10-diphenyl-2-anthryl)phenyl]-9H-carbazole] | > 10 | < 10 | > 10 |  | < 10 | > 10 |  | ◯ | X | X | ◯ | 
c1ccc(-c2c3ccccc3c(-c3ccccc3)c3cc(-c4ccc5c(c4)c4ccccc4n5-c4ccccc4)ccc23)cc1 [Sample 1-13, 3-(9,10-diphenyl-2-anthryl)-9-phenyl-9H-carbazole] | > 10 | > 10 | > 10 |  | > 10 | > 10 |  | ◯ | X | ◯ | ◯ | 
c1ccc(-c2c3ccccc3c(-c3ccccc3)c3cc(-n4c5ccccc5c5ccccc54)ccc23)cc1 [Sample 1-12, 9-(9,10-diphenyl-2-anthryl)-9H-carbazole] | > 10 | < 10 | > 10 | > 10 | > 10 | > 10 |  | ◯ | X | ◯ | ◯ | 
c1ccc(-c2c3ccccc3c(-c3ccc(-c4ccc5c(c4)c4ccccc4n5-c4ccccc4)cc3)c3ccccc23)cc1 [Sample 1-6, 9-phenyl-3-[4-(10-phenyl-9-anthryl)phenyl]-9H-carbazol] | > 10 | < 10 | > 10 | < 10 | < 10 | > 10 |  | ◯ | X | X | ◯ | 
c1ccc(-c2c3ccccc3c(-c3ccc(-n4c5ccccc5c5ccccc54)cc3)c3ccccc23)cc1 [Sample 1-5, 9-[4-(N-carbazolyl)]phenyl-10-phenylanthracene] |  |  |  |  |  |  |  | ◯ | X | X | ◯ | 
c1ccc(-c2c3ccccc3c(-c3ccccc3)c3ccccc23)cc1 [Sample 1-1, 9,10-diphenylanthracene, reference compound] | < 10 | < 10 | > 10 | < 10 | < 10 | > 10 | high solubility | X | X | X | X | crystallized film with a bad quality
c1ccc2cc(-c3c4ccccc4c(-c4ccc(-n5c6ccccc6c6ccccc65)cc4)c4ccccc34)ccc2c1 [Sample 1-9, 9-[4-(carbazol-9-yl)phenyl]-10-(2-naphthyl)anthracene] | > 10 | < 10 | > 10 | < 10 | < 10 | > 10 |  | ◯ | X | X | ◯ | 

Reference: patent US8518492B2, “Composition, method for manufacturing thin film, and method for manufacturing light-emitting element” (Semiconductor Energy Laboratory Co., Ltd., priority 2008, dated 2013)
